Assay results reported in US20180000085A1, “USE OF PICOLINAMIDE COMPOUNDS WITH FUNGICIDAL ACTIVITY” (DOW AGROSCIENCES LLC, priority 2014, published 2018).

Assays:
Zymoseptoria tritici = experiment: Leaf blotch of wheat (SEPTTR) disease control on wheat seedlings; assay type: in vivo; design: key to SEPTTR 1DP, HV activity at 100 ppm (% control rating) / SEPTTR 3DC, HV activity at 100 ppm (% control rating) / SEPTTR disease control, 1DP / SEPTTR disease control, 3DC / SEPTTR 1DP disease control rating, HV activity / SEPTTR 3DC disease control rating, HV activity / SEPTTR 3DC, LV activity at 125.1 g/H (% Control rating) / SEPTTR 1DP, LV activity at 125.1 g/H (% Control rating) / SEPTTR 1DP disease control rating, LV activity at 125.1 g/H / SEPTTR 3DC disease control rating, LV activity at 125.1 g/H / SEPTTR 3DC disease control rating, HV activity at 100 ppm / SEPTTR 1DP disease control rating, HV activity at 100 ppm / HV activity at 100 ppm SEPTTR 3DC (disease control rating) / HV activity at 100 ppm SEPTTR 1DP (disease control rating) / LV activity at 125.1 g/H SEPTTR 1DP (disease control rating) / LV activity at 125.1 g/H SEPTTR 3DC (disease control rating): A: > 80; B: ≤ 80; C: Not Tested; D: No Activity Observed in the Reported Assay; conditions: for SEPTTR 1DP disease control rating, HV activity / SEPTTR 3DC disease control rating, HV activity: HV application at 100 ppm; for SEPTTR 1DP disease control rating, HV activity / SEPTTR 3DC disease control rating, HV activity / LV activity at 125.1 g/H SEPTTR 1DP (disease control rating) / LV activity at 125.1 g/H SEPTTR 3DC (disease control rating) / HV activity at 100 ppm SEPTTR 1DP (disease control rating) / HV activity at 100 ppm SEPTTR 3DC (disease control rating): wheat leaf blotch; for HV activity at 100 ppm SEPTTR 1DP (disease control rating) / HV activity at 100 ppm SEPTTR 3DC (disease control rating): HV application
Puccinia triticina = experiment: Wheat brown rust (PUCCRT) disease control on wheat seedlings; assay type: in vivo; design: key to PUCCRT 3DC, HV activity at 100 ppm (% control rating) / PUCCRT disease control, 3DC / PUCCRT 1DP disease control rating, HV activity / PUCCRT 3DC disease control rating, HV activity / PUCCRT 3DC, LV activity at 125.1 g/H (% Control rating) / PUCCRT 1DP, LV activity at 125.1 g/H (% Control rating) / PUCCRT 3DC disease control rating, LV activity at 125.1 g/H / PUCCRT 1DP disease control rating, LV activity at 125.1 g/H / PUCCRT 3DC disease control rating, HV activity at 100 ppm / PUCCRT 1DP disease control rating, HV activity at 100 ppm / HV activity at 100 ppm PUCCRT 3DC (disease control rating) / LV activity at 125.1 g/H PUCCRT 1DP (disease control rating) / LV activity at 125.1 g/H PUCCRT 3DC (disease control rating): A: > 80; B: ≤ 80; C: Not Tested; D: No Activity Observed in the Reported Assay; conditions: for PUCCRT 1DP disease control rating, HV activity / PUCCRT 3DC disease control rating, HV activity: HV application at 100 ppm; for PUCCRT 1DP disease control rating, HV activity / PUCCRT 3DC disease control rating, HV activity / LV activity at 125.1 g/H PUCCRT 1DP (disease control rating) / LV activity at 125.1 g/H PUCCRT 3DC (disease control rating) / HV activity at 100 ppm PUCCRT 1DP (disease control rating) / HV activity at 100 ppm PUCCRT 3DC (disease control rating): wheat brown rust; for HV activity at 100 ppm PUCCRT 1DP (disease control rating) / HV activity at 100 ppm PUCCRT 3DC (disease control rating): HV application
[1] = low volume application, 125.1 g/H, 1 Day Protectant
[2] = low volume application, 125.1 g/H, 3 Day Curative
[3] = HV activity at 100 ppm, 1 Day Protectant, wheat
[4] = HV activity at 100 ppm, 3 Day Curative, wheat
[5] = high volume application, 100 ppm, 1DP
[6] = high volume application, 100 ppm, 3DC

C=CCC(Oc1ccc(Cl)cc1Cl)C(C)OC(=O)C(C)NC(=O)c1nccc(OC)c1O (stereo not shown) [Cmpd 439]
SEPTTR 1DP disease control rating, HV activity (Zymoseptoria tritici; 1 Day Protectant): B (≤ 80) | SEPTTR 3DC disease control rating, HV activity (Zymoseptoria tritici; 3 Day Curative): D | PUCCRT 1DP disease control rating, HV activity (Puccinia triticina; 1 Day Protectant): A (> 80) | PUCCRT 3DC disease control rating, HV activity (Puccinia triticina; 3 Day Curative): A (> 80)

CCC(CC)[C@@H](Oc1ccccc1Cl)[C@H](C)OC(=O)[C@@H](NC(=O)c1nccc(OC)c1O)C(C)C [Cmpd 411]
SEPTTR 1DP disease control rating, HV activity (Zymoseptoria tritici; 1 Day Protectant): B (≤ 80) | SEPTTR 3DC disease control rating, HV activity (Zymoseptoria tritici; 3 Day Curative): B (≤ 80) | PUCCRT 1DP disease control rating, HV activity (Puccinia triticina; 1 Day Protectant): A (> 80) | PUCCRT 3DC disease control rating, HV activity (Puccinia triticina; 3 Day Curative): D

COCCC(=O)Oc1c(OC)ccnc1C(=O)NC(C)C(=O)OC(C)C(CC(C)C)Oc1ccccc1 (stereo not shown) [Cmpd 1100]
LV activity at 125.1 g/H SEPTTR 1DP (disease control rating) (Zymoseptoria tritici; [1]): A (> 80) | LV activity at 125.1 g/H SEPTTR 3DC (disease control rating) (Zymoseptoria tritici; [2]): A (> 80) | LV activity at 125.1 g/H PUCCRT 1DP (disease control rating) (Puccinia triticina; [1]): A (> 80) | LV activity at 125.1 g/H PUCCRT 3DC (disease control rating) (Puccinia triticina; [2]): A (> 80)

CCCOC(CC)C(Oc1ccccc1)C(C)OC(=O)C(C)NC(=O)c1nccc(OC)c1O (stereo not shown) [Cmpd 295]
SEPTTR disease control, 1DP (Zymoseptoria tritici; [3]): D | SEPTTR disease control, 3DC (Zymoseptoria tritici; [4]): B (≤ 80) | SEPTTR 1DP disease control rating, HV activity (Zymoseptoria tritici; 1 Day Protectant): D | SEPTTR 3DC disease control rating, HV activity (Zymoseptoria tritici; 3 Day Curative): B (≤ 80) | SEPTTR 1DP, HV activity at 100 ppm (% control rating) (Zymoseptoria tritici; [5]): D | SEPTTR 3DC, HV activity at 100 ppm (% control rating) (Zymoseptoria tritici; [6]): B (≤ 80) | PUCCRT disease control, 1DP (Puccinia triticina; [3]): B (≤ 80) | PUCCRT disease control, 3DC (Puccinia triticina; [4]): B (≤ 80) | PUCCRT 1DP disease control rating, HV activity (Puccinia triticina; 1 Day Protectant): B (≤ 80) | PUCCRT 3DC disease control rating, HV activity (Puccinia triticina; 3 Day Curative): B (≤ 80) | PUCCRT 1DP, HV activity at 100 ppm (% control rating) (Puccinia triticina; [5]): B (≤ 80) | PUCCRT 3DC, HV activity at 100 ppm (% control rating) (Puccinia triticina; [6]): B (≤ 80)

COc1ccnc(C(=O)N[C@@H](C)C(=O)O[C@@H](C)[C@H](Oc2ccc(C)cc2)C2CC2)c1OC(C)=O [Cmpd 1058]
LV activity at 125.1 g/H SEPTTR 1DP (disease control rating) (Zymoseptoria tritici; [1]): B (≤ 80) | LV activity at 125.1 g/H SEPTTR 3DC (disease control rating) (Zymoseptoria tritici; [2]): B (≤ 80) | LV activity at 125.1 g/H PUCCRT 1DP (disease control rating) (Puccinia triticina; [1]): A (> 80) | LV activity at 125.1 g/H PUCCRT 3DC (disease control rating) (Puccinia triticina; [2]): A (> 80)

COc1ccnc(C(=O)NC(C(=O)OC(C)C(Oc2ccc3ccccc3c2)C(C)C)C(C)C)c1O (stereo not shown) [Cmpd 401]
SEPTTR 1DP disease control rating, HV activity (Zymoseptoria tritici; 1 Day Protectant): B (≤ 80) | SEPTTR 3DC disease control rating, HV activity (Zymoseptoria tritici; 3 Day Curative): B (≤ 80) | PUCCRT 1DP disease control rating, HV activity (Puccinia triticina; 1 Day Protectant): A (> 80) | PUCCRT 3DC disease control rating, HV activity (Puccinia triticina; 3 Day Curative): B (≤ 80)

COc1ccnc(C(=O)N[C@@H](C)C(=O)O[C@@H](C)[C@H](Oc2cccc(Cl)c2)C(C)(C)C)c1OC(C)=O [Cmpd 1055]
LV activity at 125.1 g/H SEPTTR 1DP (disease control rating) (Zymoseptoria tritici; [1]): B (≤ 80) | LV activity at 125.1 g/H SEPTTR 3DC (disease control rating) (Zymoseptoria tritici; [2]): A (> 80) | LV activity at 125.1 g/H PUCCRT 1DP (disease control rating) (Puccinia triticina; [1]): A (> 80) | LV activity at 125.1 g/H PUCCRT 3DC (disease control rating) (Puccinia triticina; [2]): A (> 80)

COc1ccnc(C(=O)NC(C)C(=O)OC(C)C(OC(=O)c2ccccc2)C(C)C)c1O (stereo not shown) [Cmpd 431]
SEPTTR 1DP disease control rating, HV activity (Zymoseptoria tritici; 1 Day Protectant): D | SEPTTR 3DC disease control rating, HV activity (Zymoseptoria tritici; 3 Day Curative): D | PUCCRT 1DP disease control rating, HV activity (Puccinia triticina; 1 Day Protectant): A (> 80) | PUCCRT 3DC disease control rating, HV activity (Puccinia triticina; 3 Day Curative): D

COc1ccnc(C(=O)N[C@@H](C)C(=O)O[C@@H](C)[C@@H](CC(C)C)OCC(C)C)c1O [Cmpd 1044]
HV activity at 100 ppm SEPTTR 1DP (disease control rating) (Zymoseptoria tritici; 100 ppm, 1 Day Protectant): B (≤ 80) | HV activity at 100 ppm SEPTTR 3DC (disease control rating) (Zymoseptoria tritici; 100 ppm, 3 Day Curative): A (> 80) | HV activity at 100 ppm PUCCRT 1DP (disease control rating) (Puccinia triticina; 100 ppm, 1 Day Protectant): A (> 80) | HV activity at 100 ppm PUCCRT 3DC (disease control rating) (Puccinia triticina; 100 ppm, 3 Day Curative): A (> 80)

CCC(CC)[C@@H](Oc1ccccc1Cl)[C@H](C)OC(=O)[C@@H](NC(=O)c1nccc(OC)c1OCOC(C)=O)C(C)C [Cmpd 652]
SEPTTR 1DP, LV activity at 125.1 g/H (% Control rating) (Zymoseptoria tritici; [1]): B (≤ 80) | SEPTTR 3DC, LV activity at 125.1 g/H (% Control rating) (Zymoseptoria tritici; [2]): B (≤ 80) | PUCCRT 1DP, LV activity at 125.1 g/H (% Control rating) (Puccinia triticina; [1]): A (> 80) | PUCCRT 3DC, LV activity at 125.1 g/H (% Control rating) (Puccinia triticina; [2]): B (≤ 80)

CCOc1ccnc(C(=O)N[C@@H](C)C(=O)O[C@@H](C)[C@@H](CC(C)C)Oc2cc(F)ccc2F)c1O [Cmpd 1040]
HV activity at 100 ppm SEPTTR 1DP (disease control rating) (Zymoseptoria tritici; 100 ppm, 1 Day Protectant): D | HV activity at 100 ppm SEPTTR 3DC (disease control rating) (Zymoseptoria tritici; 100 ppm, 3 Day Curative): D | HV activity at 100 ppm PUCCRT 1DP (disease control rating) (Puccinia triticina; 100 ppm, 1 Day Protectant): B (≤ 80) | HV activity at 100 ppm PUCCRT 3DC (disease control rating) (Puccinia triticina; 100 ppm, 3 Day Curative): A (> 80)
